Test results as given in patent publication US20220274968A1, “Oxazole And Oxadiazole Derivatives Useful As Agonists Of Free Fatty Acid Receptor 1” (GBiotech S.à.r.l., priority 2019, published 2022).

Tested on: C57BI/6N male mice
Assay: Oral glucose tolerance test (OGTT) in C57BI/6N male mice
Format: in vivo
Conditions: single peroral dose 60 min before glucose 2 g/kg; Z1558775684 20 mg/kg, Metformin 300 mg/kg; compared with the Vehicle-treated group; 5 mice per group
Method: Values are expressed as means of 5 animals tested. For glucose tolerance test (GTT), mice were orally treated with glucose at dose of 2 g/kg at the dose volume of 10 ml/kg after a 6-hour fasting. Glucose measurements were performed immediately before compound treatment (−60 min), at −30 min, 0 min (before glucose administration), and then 15, 30, 60, 90 and 120 min after glucose administration.
EXAMPLE 87: OGTT TESTING IN C57BI/6N MALE MICE
Each experimental group consisted of five male C57BI/6N mice. Animals were dosed once perorally with 20 mg/kg of tested compound Z1558775684. A control group was dosed with vehicle on the same schedule. Metformin at the dosage of 300 mg/kg was used as reference compound.
Compound Z1558775684 was dissolved/suspended in DMSO-PEG400-physiological saline (20%:50%:30%) at concentration 4 mg/ml. Metformin was dissolved in the same vehicle at concentration 60 mg/ml. The test samples were administered per os in the volume corresponding to 5 ml/kg body weight.
Single doses of test samples were administered 60 min before glucose treatment at 3 p.m.
The blood glucose level was measured after 6-hour fasting using Call Plus glucometer and specific test strips. Blood was obtained from the tail vein by incision of the tail tip, 5-6 μl of blood was used for each assay. […]

SMILES	glucose level during oral glucose tolerance test (OGTT)
CCc1nc(N)nc(SCc2ncc(-c3cccc(Cl)c3)o2)n1 [Compound Z1558775684, 4-({[5-(3-chlorophenyl)-1,3-oxazol-2-yl]methyl}sulfanyl)-6-ethyl-1,3,5-triazin-2-amine]	Statistically significant decrease in glucose level
CN(C)C(=N)N=C(N)N [Metformin]	Statistically significant decrease in glucose level
